Experiments:
[1] = tested on: barley; experiment: Herbicidal bioassay, barley (% necrosis); format: in vivo
Method in brief: (§1)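 Scoring of % necrosis followed EPPO guideline PP1/135 at specified growth intervals, five replicates per species and treatment. Plants at the 2-4 true leaf stage received Potter-tower sprays of DMSO-diluted compounds across six levels from 0.0001% to 0.05%, with water and DMSO controls.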

[2] = tested on: peas; experiment: Herbicidal bioassay, peas (% necrosis); format: in vivo
Method in brief: as §1

CC(Oc1ccc(Oc2ccc(C(F)(F)F)cn2)cc1)C(=O)O (stereo not drawn) [Compound 25, Fluazifop, reference compound]
A (over 80% necrosis): Sum of % necrosis in barley ([1]; Dose 0.00005, Day 21) | Sum of % necrosis in barley ([1]; Dose 0.0001, Day 21) | Sum of % necrosis in barley ([1]; Dose 0.0005, Day 21) | Sum of % necrosis in Peas ([2]; Dose 0.00001, Day 21) | Sum of % necrosis in Peas ([2]; Dose 0.00005, Day 21) | Sum of % necrosis in Peas ([2]; Dose 0.0001, Day 21) | Sum of % necrosis in Peas ([2]; Dose 0.0005, Day 21)
B (50%-80% necrosis): Sum of % necrosis in barley ([1]; Dose 0.0005, Day 14) | Sum of % necrosis in Peas ([2]; Dose 0.00001, Day 10) | Sum of % necrosis in Peas ([2]; Dose 0.00001, Day 14)
C (less than 50% necrosis): Sum of % necrosis in barley ([1]; Dose 0.000001, Day 0) | Sum of % necrosis in barley ([1]; Dose 0.000001, Day 1) | Sum of % necrosis in barley ([1]; Dose 0.000001, Day 3) | Sum of % necrosis in barley ([1]; Dose 0.000001, Day 7) | Sum of % necrosis in barley ([1]; Dose 0.000001, Day 10) | Sum of % necrosis in barley ([1]; Dose 0.000001, Day 14) | Sum of % necrosis in barley ([1]; Dose 0.000001, Day 21) | Sum of % necrosis in barley ([1]; Dose 0.000005, Day 0) | Sum of % necrosis in barley ([1]; Dose 0.000005, Day 1) | Sum of % necrosis in barley ([1]; Dose 0.000005, Day 3) | Sum of % necrosis in barley ([1]; Dose 0.000005, Day 7) | Sum of % necrosis in barley ([1]; Dose 0.000005, Day 10) | Sum of % necrosis in barley ([1]; Dose 0.000005, Day 14) | Sum of % necrosis in barley ([1]; Dose 0.000005, Day 21) | Sum of % necrosis in barley ([1]; Dose 0.00001, Day 0) | Sum of % necrosis in barley ([1]; Dose 0.00001, Day 1) | Sum of % necrosis in barley ([1]; Dose 0.00001, Day 3) | Sum of % necrosis in barley ([1]; Dose 0.00001, Day 7) | Sum of % necrosis in barley ([1]; Dose 0.00001, Day 10) | Sum of % necrosis in barley ([1]; Dose 0.00001, Day 14) | Sum of % necrosis in barley ([1]; Dose 0.00001, Day 21) | Sum of % necrosis in barley ([1]; Dose 0.00005, Day 0) | Sum of % necrosis in barley ([1]; Dose 0.00005, Day 1) | Sum of % necrosis in barley ([1]; Dose 0.00005, Day 3) | Sum of % necrosis in barley ([1]; Dose 0.00005, Day 7) | Sum of % necrosis in barley ([1]; Dose 0.00005, Day 10) | Sum of % necrosis in barley ([1]; Dose 0.00005, Day 14) | Sum of % necrosis in barley ([1]; Dose 0.0001, Day 0) | Sum of % necrosis in barley ([1]; Dose 0.0001, Day 1) | Sum of % necrosis in barley ([1]; Dose 0.0001, Day 3) | Sum of % necrosis in barley ([1]; Dose 0.0001, Day 7) | Sum of % necrosis in barley ([1]; Dose 0.0001, Day 10) | Sum of % necrosis in barley ([1]; Dose 0.0001, Day 14) | Sum of % necrosis in barley ([1]; Dose 0.0005, Day 0) | Sum of % necrosis in barley ([1]; Dose 0.0005, Day 1) | Sum of % necrosis in barley ([1]; Dose 0.0005, Day 3) | Sum of % necrosis in barley ([1]; Dose 0.0005, Day 7) | Sum of % necrosis in barley ([1]; Dose 0.0005, Day 10) | Sum of % necrosis in Peas ([2]; Dose 0.000001, Day 0) | Sum of % necrosis in Peas ([2]; Dose 0.000001, Day 1) | Sum of % necrosis in Peas ([2]; Dose 0.000001, Day 3) | Sum of % necrosis in Peas ([2]; Dose 0.000001, Day 7) | Sum of % necrosis in Peas ([2]; Dose 0.000001, Day 10) | Sum of % necrosis in Peas ([2]; Dose 0.000001, Day 14) | Sum of % necrosis in Peas ([2]; Dose 0.000001, Day 21) | Sum of % necrosis in Peas ([2]; Dose 0.000005, Day 0) | Sum of % necrosis in Peas ([2]; Dose 0.000005, Day 1) | Sum of % necrosis in Peas ([2]; Dose 0.000005, Day 3) | Sum of % necrosis in Peas ([2]; Dose 0.000005, Day 7) | Sum of % necrosis in Peas ([2]; Dose 0.000005, Day 10) | Sum of % necrosis in Peas ([2]; Dose 0.000005, Day 14) | Sum of % necrosis in Peas ([2]; Dose 0.000005, Day 21) | Sum of % necrosis in Peas ([2]; Dose 0.00001, Day 0) | Sum of % necrosis in Peas ([2]; Dose 0.00001, Day 1) | Sum of % necrosis in Peas ([2]; Dose 0.00001, Day 3) | Sum of % necrosis in Peas ([2]; Dose 0.00001, Day 7) | Sum of % necrosis in Peas ([2]; Dose 0.00005, Day 0) | Sum of % necrosis in Peas ([2]; Dose 0.00005, Day 1) | Sum of % necrosis in Peas ([2]; Dose 0.00005, Day 3) | Sum of % necrosis in Peas ([2]; Dose 0.00005, Day 7) | Sum of % necrosis in Peas ([2]; Dose 0.00005, Day 10) | Sum of % necrosis in Peas ([2]; Dose 0.00005, Day 14) | Sum of % necrosis in Peas ([2]; Dose 0.0001, Day 0) | Sum of % necrosis in Peas ([2]; Dose 0.0001, Day 1) | Sum of % necrosis in Peas ([2]; Dose 0.0001, Day 3) | Sum of % necrosis in Peas ([2]; Dose 0.0001, Day 7) | Sum of % necrosis in Peas ([2]; Dose 0.0001, Day 10) | Sum of % necrosis in Peas ([2]; Dose 0.0001, Day 14) | Sum of % necrosis in Peas ([2]; Dose 0.0005, Day 0) | Sum of % necrosis in Peas ([2]; Dose 0.0005, Day 1) | Sum of % necrosis in Peas ([2]; Dose 0.0005, Day 3) | Sum of % necrosis in Peas ([2]; Dose 0.0005, Day 7) | Sum of % necrosis in Peas ([2]; Dose 0.0005, Day 10) | Sum of % necrosis in Peas ([2]; Dose 0.0005, Day 14)

Reference: US20150094474A1, “AGRICULTURAL CHEMICALS” (Redx Pharma Ltd., priority 2012, published 2015)
